Results as given in patent US20240246960A1 (adMare Therapeutics Society, priority 2021, published 2024).

molecular target: T1, DNA-PK phosphorylation at Serine 2056 (Homo sapiens, UniProt P78527); assay: Cellular Assay for Inhibition of DNA-PK Phosphorylation at Serine 2056 (FaDu cells, neocarzinostatin, sandwich ELISA); format: cell-based; conditions: Table 3
T1 construct: host or cells: FaDu
Procedure: FaDu cells were purchased from ATCC and maintained in MEM alpha medium (Life Technologies, cat. no. 12561) supplemented with 10% fetal bovine serum, and 1% GlutaMAX at 37° C. supplemented with 5% CO2. 50,000 cells were seeded to each well of a 96-well cell culture plate in 50 μL of culture medium and incubated for 16-24 hours. Three-fold serially diluted compounds were prepared in DMSO. Culture media was used to prepare compound treatments to 0.3% DMSO (dimethyl sulphoxide) content. Compound treatments were added to the cells for 1 hour prior incubation, followed by the addition of neocarzinostatin in fresh culture medium to 1 μg/mL final concentration for an additional 2 hours incubation to induce DNA DSBs (double-strand breaks). DMSO controls were incubated with fresh culture medium alone for the additional two hours incubation. The cells were then lysed and frozen at −20° C. Cell lysates were thawed on wet ice and protein concentrations quantified by BCA Protein Assay (Thermo # 23225). Lysis buffer was used to normalize lysates by protein content and all lysates were then investigated by sandwich ELISA by means of DNA-PK-specific antibodies (Abcam ab44815: total DNA-PK; ab124918: phosphoserine-2056 DNA-PK) in sandwich ELISA format on the MSD S600MM platform (MesoScale Discovery). % inhibition was calculated for all data points: =1−(DATA_PT−AVERAGE(DMSO controls))/(AVERAGE(NCS controls)−AVERAGE(DMSO controls)). Logarithm of the molar concentration of compound was plotted against percent inhibition to calculate IC50 values, with curve fit settings for data fit to log(inhibitor) vs. normalized response—Variable slope using curve fit software (GraphPad Prism).

`CS(=O)(=O)Nc1cnc2cc(N3CCOCC3)nc(O[C@H]3CC[C@@H](Nc4ccc(C#N)nn4)CC3)c2c1` [LFA1023, N-[5-[4-[(6-cyanopyridazin-3-yl)amino]cyclohexoxy]-7-morpholino-1,6-naphthyridin-3-yl]methanesulfonamide] and `CS(=O)(=O)Nc1cnc2cc(N3CCOCC3)nc(O[C@H]3CC[C@@H](Nc4ccc(C#N)cn4)CC3)c2c1` [LFA1022, N-[5-[4-[(5-cyano-2-pyridyl)amino]cyclohexoxy]-7-morpholino-1,6-naphthyridin-3-yl]methanesulfonamide] cannot be ordered by IC50: < 100 nM for the first, < 100 nM for the second.

`CS(=O)(=O)Nc1cnc2cc(N3CCOCC3)nc(O[C@H]3CC[C@@H](n4cc(F)cn4)CC3)c2c1` [LFA1061, N-[5-[4-(4-fluoropyrazol-1-yl)cyclohexoxy]-7-morpholino-1,6-naphthyridin-3-yl]methanesulfonamide] and `Cc1cnc(N[C@H]2CC[C@@H](Oc3nc(N4CCOCC4)cc4ncc(NS(C)(=O)=O)cc34)CC2)c(F)c1` [LFA1011, N-[5-[4-[(3-fluoro-5-methyl-2-pyridyl)amino]cyclohexoxy]-7-morpholino-1,6-naphthyridin-3-yl]methanesulfonamide] cannot be ordered by IC50: < 100 nM for the first, < 100 nM for the second.

First: CS(=O)(=O)Nc1cnc2cc(N3CCOCC3)nc(O[C@H]3CC[C@@H](Nc4cccnc4)CC3)c2c1 [LFA1002, N-[7-morpholino-5-[4-(3-pyridylamino)cyclohexoxy]-1,6-naphthyridin-3-yl]methanesulfonamide]
Second: Cc1ccc(N[C@H]2CC[C@@H](Oc3nc(N4CCOCC4)cc4ncc(NS(C)(=O)=O)cc34)CC2)cn1 [LFA1017, N-[5-[4-[(6-methyl-3-pyridyl)amino]cyclohexoxy]-7-morpholino-1,6-naphthyridin-3-yl]methanesulfonamide]
The IC50 of the first is lower: < 100 nM for the first, 100 to 1000 nM for the second.

Compared with `CS(=O)(=O)Nc1cnc2cc(N3CCOCC3)nc(O[C@H]3CC[C@@H](Nc4ccnc(C#N)n4)CC3)c2c1` [LFA1033, N-[5-[4-[(2-cyanopyrimidin-4-yl)amino]cyclohexoxy]-7-morpholino-1,6-naphthyridin-3-yl]methanesulfonamide], `CS(=O)(=O)Nc1cnc2cc(N3CCOCC3)nc(O[C@H]3CC[C@@H](Nc4cncc(C#N)n4)CC3)c2c1` [LFA1031, N-[5-[4-[(6-cyanopyrazin-2-yl)amino]cyclohexoxy]-7-morpholino-1,6-naphthyridin-3-yl]methanesulfonamide] is lower in IC50: 100 to 1000 nM for the first, < 100 nM for the second.

`Cc1ccc(N[C@H]2CC[C@@H](Oc3nc(N4CCOCC4)cc4ncc(NS(C)(=O)=O)cc34)CC2)nc1` [LFA1019, N-[5-[4-[(5-methyl-2-pyridyl)amino]cyclohexoxy]-7-morpholino-1,6-naphthyridin-3-yl]methanesulfonamide] and `Cc1nc(N[C@H]2CC[C@@H](Oc3nc(N4CCOCC4)cc4ncc(NS(C)(=O)=O)cc34)CC2)ccc1F` [LFA1018, N-[5-[4-[(5-fluoro-6-methyl-2-pyridyl)amino]cyclohexoxy]-7-morpholino-1,6-naphthyridin-3-yl]methanesulfonamide] cannot be ordered by IC50: < 100 nM for the first, < 100 nM for the second.

`Cc1cccnc1N[C@H]1CC[C@@H](Oc2nc(N3CCOCC3)cc3ncc(NS(C)(=O)=O)cc23)CC1` [LFA1003, N-[5-[4-[(3-methyl-2-pyridyl)amino]cyclohexoxy]-7-morpholino-1,6-naphthyridin-3-yl]methanesulfonamide] and `COc1cccnc1N[C@H]1CC[C@@H](Oc2nc(N3CCOCC3)cc3ncc(NS(C)(=O)=O)cc23)CC1` [LFA1005, N-[5-[4-[(3-methoxy-2-pyridyl)amino]cyclohexoxy]-7-morpholino-1,6-naphthyridin-3-yl]methanesulfonamide] cannot be ordered by IC50: < 100 nM for the first, < 100 nM for the second.

`Cc1cnc(N[C@H]2CC[C@@H](Oc3nc(N4CCOCC4)cc4ncc(NS(C)(=O)=O)cc34)CC2)nc1` [LFA1048, N-[5-[4-[(5-methylpyrimidin-2-yl)amino]cyclohexoxy]-7-morpholino-1,6-naphthyridin-3-yl]methanesulfonamide] and `CN(C)Cc1cnc(N[C@H]2CC[C@@H](Oc3nc(N4CCOCC4)cc4ncc(NS(C)(=O)=O)cc34)CC2)nc1` [LFA1049, N-[5-[4-[[5-[(dimethylamino)methyl]pyrimidin-2-yl]amino]cyclohexoxy]-7-morpholino-1,6-naphthyridin-3-yl]methanesulfonamide] cannot be ordered by IC50: < 100 nM for the first, < 100 nM for the second.

`COc1ccncc1N[C@H]1CC[C@@H](Oc2nc(N3CCOCC3)cc3ncc(NS(C)(=O)=O)cc23)CC1` [LFA1016, N-[5-[4-[(4-methoxy-3-pyridyl)amino]cyclohexoxy]-7-morpholino-1,6-naphthyridin-3-yl]methanesulfonamide] and `Cc1ccncc1N[C@H]1CC[C@@H](Oc2nc(N3CCOCC3)cc3ncc(NS(C)(=O)=O)cc23)CC1` [LFA1012] cannot be ordered by IC50: < 100 nM for the first, < 100 nM for the second.

First: CS(=O)(=O)Nc1cnc2cc(N3CCOCC3)nc(O[C@H]3CC[C@@H](Nc4nccc(C(F)(F)F)n4)CC3)c2c1 [LFA1044, N-[7-morpholino-5-[4-[[4-(trifluoromethyl)pyrimidin-2-yl]amino]cyclohexoxy]-1,6-naphthyridin-3-yl]methanesulfonamide]
Second: CS(=O)(=O)Nc1cnc2cc(N3CCOCC3)nc(O[C@H]3CC[C@@H](Nc4cnc(C(F)(F)F)cn4)CC3)c2c1 [LFA1037, N-[7-morpholino-5-[4-[[5-(trifluoromethyl)pyrazin-2-yl]amino]cyclohexoxy]-1,6-naphthyridin-3-yl]methanesulfonamide]
The IC50 of the first is higher: 100 to 1000 nM for the first, < 100 nM for the second.

`COc1cc(C#N)cnc1N[C@H]1CC[C@@H](Oc2nc(N3CCOCC3)cc3ncc(NS(C)(=O)=O)cc23)CC1` [LFA1025, N-[5-[4-[(5-cyano-3-methoxy-2-pyridyl)amino]cyclohexoxy]-7-morpholino-1,6-naphthyridin-3-yl]methanesulfonamide] and `Cc1cnc(N[C@H]2CC[C@@H](Oc3nc(N4CCOCC4)cc4ncc(NS(C)(=O)=O)cc34)CC2)c(C)c1` [LFA1009, N-[5-[4-[(3,5-dimethyl-2-pyridyl)amino]cyclohexoxy]-7-morpholino-1,6-naphthyridin-3-yl]methanesulfonamide] cannot be ordered by IC50: < 100 nM for the first, < 100 nM for the second.

`Cc1ccncc1N[C@H]1CC[C@@H](Oc2nc(N3CCOCC3)cc3ncc(O)cc23)CC1` [LFA1055, 5-[4-[(4-methyl-3-pyridyl)amino]cyclohexoxy]-7-morpholino-1,6-naphthyridin-3-ol] and `Cc1ccc(N[C@H]2CC[C@@H](Oc3nc(N4CCOCC4)cc4ncc(O)cc34)CC2)nc1` [LFA1051, 5-[4-[(5-methyl-2-pyridyl)amino]cyclohexoxy]-7-morpholino-1,6-naphthyridin-3-ol] fall in the same range of IC50: 100 to 1000 nM for the first, 100 to 1000 nM for the second.

First: Oc1cnc2cc(N3CCOCC3)nc(O[C@H]3CC[C@@H](Nc4ccccn4)CC3)c2c1 [LFA1056, 7-morpholino-5-[4-(2-pyridylamino)cyclohexoxy]-1,6-naphthyridin-3-ol]
Second: Oc1cnc2cc(N3CCOCC3)nc(O[C@H]3CC[C@@H](Nc4ncc(F)cc4F)CC3)c2c1 [LFA1054, 5-[4-[(3,5-difluoro-2-pyridyl)amino]cyclohexoxy]-7-morpholino-1,6-naphthyridin-3-ol]
The IC50 of the first is lower: < 100 nM for the first, 100 to 1000 nM for the second.

`Cc1ccc(F)c(N[C@H]2CC[C@@H](Oc3nc(N4CCOCC4)cc4ncc(NS(C)(=O)=O)cc34)CC2)n1` [LFA1001, N-[5-[4-[(3-fluoro-6-methyl-2-pyridyl)amino]cyclohexoxy]-7-morpholino-1,6-naphthyridin-3-yl]methanesulfonamide] and `COc1nc(N[C@H]2CC[C@@H](Oc3nc(N4CCOCC4)cc4ncc(NS(C)(=O)=O)cc34)CC2)ncc1C` [LFA1040, N-[5-[4-[(4-methoxy-5-methyl-pyrimidin-2-yl)amino]cyclohexoxy]-7-morpholino-1,6-naphthyridin-3-yl]methanesulfonamide] fall in the same range of IC50: 100 to 1000 nM for the first, 100 to 1000 nM for the second.

`COc1nc(NC2CCC(Oc3nc(N4CCOCC4)cc4ncc(NS(C)(=O)=O)cc34)CC2)ncc1C#N` (stereo not shown) [LFA1038, N-[5-[4-[(5-cyano-4-methoxy-pyrimidin-2-yl)amino]cyclohexoxy]-7-morpholino-1,6-naphthyridin-3-yl]methanesulfonamide] and `CN(C)c1ccnc(N[C@H]2CC[C@@H](Oc3nc(N4CCOCC4)cc4ncc(NS(C)(=O)=O)cc34)CC2)n1` [LFA1041, N-[5-[4-[[4-(dimethylamino)pyrimidin-2-yl]amino]cyclohexoxy]-7-morpholino-1,6-naphthyridin-3-yl]methanesulfonamide] fall in the same range of IC50: 100 to 1000 nM for the first, 100 to 1000 nM for the second.

First: CS(=O)(=O)Nc1cnc2cc(N3CCOCC3)nc(O[C@H]3CC[C@@H](Nc4ncccc4C#N)CC3)c2c1 [LFA1008, N-[5-[4-[(3-cyano-2-pyridyl)amino]cyclohexoxy]-7-morpholino-1,6-naphthyridin-3-yl]methanesulfonamide]
Second: COc1cncc(N[C@H]2CC[C@@H](Oc3nc(N4CCOCC4)cc4ncc(NS(C)(=O)=O)cc34)CC2)c1 [LFA1013, N-[5-[4-[(5-methoxy-3-pyridyl)amino]cyclohexoxy]-7-morpholino-1,6-naphthyridin-3-yl]methanesulfonamide]
The IC50 of the first is lower: < 100 nM for the first, 100 to 1000 nM for the second.

For `CN(c1ncccn1)[C@H]1CC[C@@H](Oc2nc(N3CCOCC3)cc3ncc(O)cc23)CC1` [LFA1058, 5-[4-[methyl(pyrimidin-2-yl)amino]cyclohexoxy]-7-morpholino-1,6-naphthyridin-3-ol], the IC50 was 100 to 1000 nM.
